Assays:
Balb/c mice [1] = experiment: LPS induced TNF-α release in Balb/c mice, treatment post LPS; format: in vivo; settings: 30 min post LPS (225 μg i.p.)
Description: Here we have stimulated the inflammation process in mice with an injection of LPS (225 μg) intraperitoneally and 30 min post LPS, we have challenged the ability of RSCL-0409 (10 mg/kg, 20 mg/kg) to inhibit the TNF-α secretion.

Balb/c mice [2] = experiment: LPS induced TNF-α release in Balb/c mice, pre-treatment; format: in vivo; settings: 1 hr post LPS
Description: The present invention has studied the ability of RSCL-0409 to exert protection against inflammatory agents in a mice (Balb/c) model. Balb/c (5-6 weeks) mice were injected with LPS (225 μg) intraperitoneally with and without pretreatment of three concentrations of RSCL-0409 (10 mg/kg, 20 mg/kg and 40 mg/kg). The compound was injected intraperitoneally 30 min before LPS treatment. The mice were monitored for 1 hr post LPS treatment. RSCL-0409 injected alone served as negative control. Blood collection was done retro-orbitally under anesthesia, 1 hr post LPS injection. Serum collected after cells were allowed to settle was analysed for TNF-α secretion.

THP-1 cells = experiment: MTT toxicity assay in THP-1 cells; format: cell-based, human
From the text: The toxicity of RSCL-0409 (FIG. 2b) was also by treating cells with RSCL-0409 by MTT assay. […] The viability of the cells (analyzed in tandem by MTT) was not affected by RSCL-0409 indicating its non-toxic nature.

RAW264.7 cells = experiment: LPS induced nitric oxide (NO) release in RAW 264.7 cells (Griess reaction); format: cell-based; settings: RAW264.7, LPS 250 ng/ml
Description: RAW264.7 cells provide an excellent model for evaluations of potential inhibitors on the pathway leading the induction of iNOS and NO production. Nitric oxide production was determined in RAW264.7 cells from the National Center of Cell Science (NCCS, Pune) cultured in color-free DMEM with standard supplements by measuring the amount of nitrite from cell culture supernatant. RAW264.7 cells (5×10^4 per well) were stimulated for 24 hr with or without LPS (250 ng/ml) in the absence of presence of the RSCL-0409. Nitrite was then measured using the Griess reaction. 100 μl of cell culture supernatant was reacted with 100 μl of Griess reagent followed by spectrophotometric measurement at 550 nm. Nitrite concentrations in the supernatants were determined by comparison with a sodium nitrite standard curve. Alongside RSCL-0409 we also used known strong antioxidants (Vit C, Ascorbic acid, Catechin and Trolox) which inhibit NO to comparative antioxidant efficiency.

TNF-α [3] = experiment: LPS induced TNF-α release in human PBMC; format: cell-based; settings: PBMC isolated from human blood
From the text: In order to evaluate the ability of RSCL-0409 to inhibit LPS induced TNF-α secretion in a physiological scenario, the present invention has tested the same in PBMC isolated from human blood (FIG. 3). […] The TNF levels were not detectable in PBMCs without LPS and with RSCL-0409 treatment alone, indicating its specificity in LPS induced TNF-α through a TLR mediated process. ***P<0.001 value is for LPS treated vs. RSCL-0409 treated.

TNF-α [4] = experiment: TNF response to increasing concentration of LPS in THP-1 cells; format: cell-based, human; settings: LPS 1000 ng/ml
Description: The present invention has also conducted experiments to check the ability of RSCL-0409 to inhibit LPS induced TNF-α secretion from THP-1 cells, wherein the studies involved the stimulation of THP-1 cells with increasing concentrations of LPS (62.5 ng/ml to 1000 ng/ml) with and without pre-treatment of cells with different concentrations of RSCL-0409.

[5] = system: ICAM-1, COX-2, IL-1β and IL-8 genes; experiment: mRNA expression of pro-inflammatory genes in THP-1 cells; format: cell-based, human; settings: THP-1, LPS 250 ng/ml
Description: The inhibitory effect of the present invention, RSCL-0409 on mRNA was checked on pro-inflammatory genes like intercellular adhesion molecule1 (ICAM-1), cyclooxygenase 2 (COX-2), IL-1β and IL-8. THP-1 cells (3×10^6 cells) were seeded in a 6-well dish. The cells were treated with RSCL-0409 ([…]) for 1 hr followed by incubation with or without 250 ng/ml of LPS. After two washes with ice-cold PBS, the cells were harvested and total cellular RNA was isolated using TRIZOL Reagent (Invitrogen) according to the manufacturer's instructions. cDNA synthesis was done using high capacity cDNA reverse transcription kit (ABI systems). Amplification of ICAM-1, COX-2, IL-1β and IL-8 genes from the cDNA was carried out using the respective gene specific primers.

IL-6 mRNA = IL-6 mRNA expression in LPS stimulated THP-1 cells (real-time PCR); format: cell-based, human; settings: THP-1, LPS 250 ng/ml 1 hr
Description: To determine whether the suppressive effect of RSCL-0409 on the cytokine production occurs at mRNA expression level, quantitative real-time PCR was used to examine TNF-α and IL-6 mRNA expression in THP-1 cells stimulated with LPS. THP-1 cells (3×10^6 cells/well) were stimulated with 250 ng/ml LPS in the presence or absence of RSCL-0409 at indicated concentrations for the 1 hr. Total RNA was isolated from these cells and cDNA was synthesized. LPS treated cells acted as positive control. All quantitative real-time PCR (TaqMan™) primers and probes were obtained from Applied Biosystems (ABI), Weiterstadt, Germany. For detection of TNF-α, pre-developed assay reagents (Universal master mix as obtained from Applied Biosystems included all reagents including Taq-polymerase apart from specific primers and probes) were used. The PCR was performed utilizing 1 μl cDNA per reaction in triplicates of 25 μl volume on an ABI 7500 Realtime PCR machine using a 2-step PCR protocol.
Quantization of mRNA was performed using the comparative threshold cycle method and analysed using standard software and expressed in fold change. The fold change of TNF-α (FIG. 5a) and IL-6 (FIG. 5b) mRNA in treated cells over control was obtained after correction for the amount of β-actin. […] The expression levels of both TNF and IL-6 decreased following 1 hr pretreatment with RSCL-0409 in the presence of LPS. […]

## COc1ccc(OC2OC3COC(c4ccccc4)OC3C(OC3OC(COC(=O)CCC(C)=O)C(OC(=O)CCl)C(OC(C)=O)C3OC(C)=O)C2NC(=O)C(Cl)(Cl)Cl)cc1 [RSCL-0409, p-Methoxy phenyl-O-(2,3-di-O-acetyl-4-O-chloroacetyl-6-O-levulinoyl-β-D-glucopyranosyl)-(1-3)-2-deoxy-2-trichloroacetamido-4,6-O-benzylidene-α-D-glucopyranoside]
Balb/c mice [1]; 10 mg/kg
  inhibition of TNF secretion: ~39%
Balb/c mice [1]; 20 mg/kg
  inhibition of TNF secretion: ~47%
Balb/c mice [2]; 10 mg/kg i.p. 30 min before LPS (225 μg i.p.)
  reduction of serum TNF production: ~53%
Balb/c mice [2]; 20 mg/kg i.p. 30 min before LPS (225 μg i.p.)
  reduction of serum TNF production: ~64%
Balb/c mice [2]; 40 mg/kg i.p. 30 min before LPS (225 μg i.p.)
  reduction of serum TNF production: ~67%
THP-1 cells
  viability of the cells (MTT): not affected
RAW264.7 cells
  anti-oxidant activity versus reference antioxidants (Vit C, Ascorbic acid, Catechin and Trolox): far more potent
RAW264.7 cells; 24 hr
  NO secretion induced by LPS: inhibited by RSCL-0409 in a concentration dependent manner
TNF-α [3]
  LPS induced TNF-α secretion: inhibitory effects similar to that seen in THP-1 cells
TNF-α [4]
  concentration inhibiting LPS induced TNF-α secretion (as low as): 10 µM
[5]
  mRNA expression of ICAM-1, COX-2, IL-1β and IL-8: inhibited mRNA expression levels of the tested genes
IL-6 mRNA
  IL-6 mRNA expression: The same was observed with IL-6 also in a concentration dependent manner

Source: US20090215710A1, “CARBOHYDRATE BASED TOLL-LIKE RECEPTOR (TLR) ANTAGONISTS” (RELIANCE LIFE SCIENCES PVT. LTD., priority 2007, published 2009)
